Assay results reported in PMC10584170, “Machine learning-based phenotypic imaging to characterise the targetable biology of Plasmodium falciparum male gametocytes for the development of transmission-blocking antimalarials” (PLOS Pathogens, 2023).
Where two headings read alike, the source gives them in different places.

What was measured:
HepG2 cells = experiment: HepG2 cytotoxicity counter-screen; settings: for Tox50: cytotoxic activity against HepG2 cells; for Mean TOX: mean of the HepG2 TOX50 values
[1] = test system: P. falciparum male gametocytes; experiment: P. falciparum Dual Gamete Formation Assay (PfDGFA), male readout (exflagellation); assay type: cell-based, Plasmodium falciparum NF54; settings: for HitlevelM: number of replicates with >50% inhibition in the male readout; for Selectivity Ratio M: HepG2 Tox50 versus male IC50
Procedure, shortened: (§1)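 NF54 mature gametocytes (d14), cpd 24 h 37°C hypoxic gas; trigger: xanthurenic acid ookinete medium + Cy3 anti-Pfs25, 4°C 4 min → 28°C 4 min. Male: exflagellation centres, brightfield x6. Female: Pfs25+ gametes, fluorescence, +24 h 28°C dark.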

[2] = test system: P. falciparum female gametocytes; experiment: P. falciparum Dual Gamete Formation Assay (PfDGFA), female readout (Pfs25-positive female gametes); assay type: cell-based, Plasmodium falciparum NF54; settings: for HitlevelF: number of replicates with >50% inhibition in the female readout; for IC50: PfDGFA, 24 h incubation with gametocytes before induction, female gamete readout, read-out: Female IC50; for Selectivity ratio F: HepG2 Tox50 versus female IC50
Procedure, shortened: as §1

[3] = Plasmodium falciparum, PfDGFA, 24 h incubation with gametocytes before induction, exflagellation readout, read-out: Male IC50
[4] = Plasmodium falciparum, 2µM, 24h preincubation with gametocytes, average of replicates, read-out: Average inhibition male (%)
[5] = Plasmodium falciparum, 2µM, 24h preincubation with gametocytes, replicate R1, read-out: % inhibition male (individual replicates) R1
[6] = Plasmodium falciparum, 2µM, 24h preincubation with gametocytes, replicate R2, read-out: % inhibition male (individual replicates) R2
[7] = Plasmodium falciparum, 2µM, 24h preincubation with gametocytes, replicate R3, read-out: % inhibition male (individual replicates) R3
[8] = Plasmodium falciparum, 2µM, 24h preincubation with gametocytes, replicate R4, read-out: % inhibition male (individual replicates) R4
[9] = Plasmodium falciparum, 2µM, 24h preincubation with gametocytes, average of replicates, read-out: Average inhibition female (%)
[10] = Plasmodium falciparum, 2µM, 24h preincubation with gametocytes, replicate R1, read-out: % inhibition female (individual replicates) R1
[11] = Plasmodium falciparum, 2µM, 24h preincubation with gametocytes, replicate R2, read-out: % inhibition female (individual replicates) R2
[12] = Plasmodium falciparum, 2µM, 24h preincubation with gametocytes, replicate R3, read-out: % inhibition female (individual replicates) R3
[13] = Plasmodium falciparum, 2µM, 24h preincubation with gametocytes, replicate R4, read-out: % inhibition female (individual replicates) R4
[14] = 2µM, 24h preincubation with gametocytes, average of replicates
[15] = 2µM, 24h preincubation with gametocytes, replicate R1
[16] = 2µM, 24h preincubation with gametocytes, replicate R4
[17] = PfDGFA, 24 h incubation with gametocytes before induction, exflagellation readout, read-out: Male IC50
[18] = this study, read-out: Pf DGFA IC50 MALE
[19] = PfDGFA at 2µM, 24h preincubation with gametocytes, average of replicates
[20] = PfDGFA at 2µM, 24h preincubation with gametocytes, replicate R1
[21] = PfDGFA at 2µM, 24h preincubation with gametocytes, replicate R3
[22] = PfDGFA at 2µM, 24h preincubation with gametocytes, replicate R4

Molecule CCC1CN2CCc3cc(OC)c(OC)cc3C2CC1CC1NCCc2cc(OC)c(OC)cc21.Cl (centres unmarked) [TCMDC-125849] has a Tox50 (HepG2 cells) of 27.47 µM, a HitlevelM ([1]; 2µM, 24h preincubation) of 2 and an inhibition at 2 µM ([1]; Plasmodium falciparum, 2µM, 24h preincubation with gametocytes prior to induction of gametogenesis, average of replicates, read-out: Average inhibition male (%)) of 47.7%. For the same molecule, the inhibition at 2 µM ([1]; Plasmodium falciparum, 2µM, 24h preincubation with gametocytes prior to induction of gametogenesis, replicate R1, read-out: % inhibition male (individual replicates) R1) was 38.6%, the inhibition at 2 µM ([1]; Plasmodium falciparum, 2µM, 24h preincubation with gametocytes prior to induction of gametogenesis, replicate R2, read-out: % inhibition male (individual replicates) R2) was 27.6% and the inhibition at 2 µM ([1]; Plasmodium falciparum, 2µM, 24h preincubation with gametocytes prior to induction of gametogenesis, replicate R3, read-out: % inhibition male (individual replicates) R3) was 59.3%. For the same molecule, the inhibition at 2 µM ([1]; Plasmodium falciparum, 2µM, 24h preincubation with gametocytes prior to induction of gametogenesis, replicate R4, read-out: % inhibition male (individual replicates) R4) was 65.1%, the IC50 [1, 3] was 3.53 µM and the HitlevelF ([2]; 2µM, 24h preincubation) was 4. The “times more potent against females than males” value ([2]; PfDGFA female versus male gametocytes) was 4.7, the inhibition at 2 µM ([2]; Plasmodium falciparum, 2µM, 24h preincubation with gametocytes prior to induction of gametogenesis, average of replicates, read-out: Average inhibition female (%)) was 93.3% and the inhibition at 2 µM ([2]; Plasmodium falciparum, 2µM, 24h preincubation with gametocytes prior to induction of gametogenesis, replicate R1, read-out: % inhibition female (individual replicates) R1) was 91%. The inhibition at 2 µM ([2]; Plasmodium falciparum, 2µM, 24h preincubation with gametocytes prior to induction of gametogenesis, replicate R2, read-out: % inhibition female (individual replicates) R2) was 79%, the inhibition at 2 µM ([2]; Plasmodium falciparum, 2µM, 24h preincubation with gametocytes prior to induction of gametogenesis, replicate R3, read-out: % inhibition female (individual replicates) R3) was 103% and the inhibition at 2 µM ([2]; Plasmodium falciparum, 2µM, 24h preincubation with gametocytes prior to induction of gametogenesis, replicate R4, read-out: % inhibition female (individual replicates) R4) was 100%. The IC50 ([2]; Plasmodium falciparum) was 0.75 µM.
In the case of N=C(N)NCCN(Cc1ccccc1)c1ccc(Cl)cc1 [TCMDC-131838], the Tox50 (HepG2 cells) is reported as 48.68 µM, the “Selectivity Ratio M” value [1] is reported as 72.58 and the inhibition at 2 µM [1, 4] is reported as 98.3%. The inhibition at 2 µM [1, 5] was 96.5%, the inhibition at 2 µM [1, 6] was 98.5% and the inhibition at 2 µM [1, 7] was 97.4%. For the same molecule, the inhibition at 2 µM [1, 8] was 101%, the IC50 [1, 3] was 0.67 µM and the “Selectivity ratio F” value [2] was 7.49. The inhibition at 2 µM [2, 9] was 61.5%, the inhibition at 2 µM [2, 10] was 40.2% and the inhibition at 2 µM [2, 11] was 88.5%. It also gave an inhibition at 2 µM [2, 12] of 50%, an inhibition at 2 µM [2, 13] of 67.4% and an IC50 ([2]; Plasmodium falciparum) of 6.5 µM.
For CCN(CC)CC(O)CNc1c2ccc([N+](=O)[O-])cc2nc2cc(OC)c(OC)cc12.Cl (centres unmarked) [TCMDC-138079], the Tox50 (HepG2 cells) was 2.63 µM, the “Average inhibition male (%)” value [1, 14] was 95.0% and the “% inhibition male (individual replicates) R1” value [1, 15] was 93.0%. For the same molecule, the “% inhibition male (individual replicates) R4” value [1, 16] was 92.3%, the “Selectivity Ratio M” value [1] was 6.3 and the IC50 [1, 17] was 0.42 µM. The “Average inhibition female (%)” value [2, 14] was 25.5%, the “% inhibition female (individual replicates) R1” value [2, 15] was 28.2% and the “% inhibition female (individual replicates) R3” value ([2]; 2µM, 24h preincubation with gametocytes, replicate R3) was 21.9%. For the same molecule, the “% inhibition female (individual replicates) R4” value [2, 16] was 25.2%, the “Selectivity ratio F” value [2] was 0.86 and the IC50 [2] was 3.07 µM.
In the case of CN(C)c1ccnc2ccc(NC(=O)Nc3ccnc4ccccc34)cc12 [TCMDC-139749], the Tox50 (HepG2 cells) is reported as 22.68 µM, the “Selectivity Ratio M” value [1] is reported as 13.31 and the inhibition at 2 µM [1, 4] is reported as 96.1%. For the same molecule, the inhibition at 2 µM [1, 5] was 97.3%, the inhibition at 2 µM [1, 6] was 94.7% and the inhibition at 2 µM [1, 8] was 96.1%. For the same molecule, the IC50 [1, 3] was 1.7 µM, the “Selectivity ratio F” value [2] was 3.83 and the inhibition at 2 µM [2, 9] was 29.2%. For the same molecule, the inhibition at 2 µM [2, 10] was 32.7%, the inhibition at 2 µM [2, 11] was 28.8% and the inhibition at 2 µM [2, 12] was 22.7%. For the same molecule, the inhibition at 2 µM [2, 13] was 32.6% and the IC50 ([2]; Plasmodium falciparum) was 5.92 µM.
For COc1cc2c(cc1S(=O)(=O)c1ccc(COc3ccc(C(F)(F)F)cc3)cc1)CNCC2.Cl [TC36], the “Mean TOX” value (HepG2 cells) was 16.60 µM, the “Cytotox ratio Pf Male” value [1] was 12.0 and the IC50 [1, 18] was 1.38 µM. The “Cytotox ratio Pf Female” value [2] was 1.7.
For CC(Cc1ccc(C(=O)Nc2ccc(CC(C)NCCc3cccc(Cl)c3)cc2)cc1)NCCc1ccc(C(F)(F)F)cc1 (centres unmarked) [TCMDC-139790], the Tox50 (HepG2 cells) was 3.76 µM, the “Selectivity Ratio M” value [1] was 2.39 and the “Average inhibition male (%)” value [1, 19] was 83.5%. For the same molecule, the “% inhibition male (individual replicates) R1” value [1, 20] was 92.2%, the “% inhibition male (individual replicates) R3” value [1, 21] was 51.0% and the “% inhibition male (individual replicates) R4” value [1, 22] was 92.9%. The IC50 [1, 17] was 1.58 µM, the HitlevelM ([1]; 2µM) was 4 and the “Selectivity ratio F” value [2] was 3.01. The “Average inhibition female (%)” value [2, 19] was 37.4%, the “% inhibition female (individual replicates) R1” value [2, 20] was 27.8% and the “% inhibition female (individual replicates) R3” value [2, 21] was 24.4%. For the same molecule, the “% inhibition female (individual replicates) R4” value [2, 22] was 27.0%, the IC50 [2] was 1.25 µM and the HitlevelF ([2]; 2µM) was 1.
For Cl.NC(=O)c1ccccc1Nc1nc(Nc2cccc(N3CCN(CCO)CC3)c2)ncc1Cl [TCMDC-134114], the Tox50 (HepG2 cells) was 13.07 µM, the “Selectivity Ratio M” value [1] was 28.08 and the inhibition at 2 µM [1, 4] was 96.1%. For the same molecule, the inhibition at 2 µM [1, 5] was 97.9%, the inhibition at 2 µM [1, 6] was 97.4% and the inhibition at 2 µM [1, 7] was 96.2%. For the same molecule, the inhibition at 2 µM [1, 8] was 92.9%, the IC50 [1, 3] was 0.47 µM and the “Selectivity ratio F” value [2] was 1.31. It also gave an inhibition at 2 µM [2, 9] of 4.2%, an inhibition at 2 µM [2, 10] of 11.2% and an inhibition at 2 µM [2, 11] of 7.4%. It also gave an inhibition at 2 µM [2, 12] of -5%, an inhibition at 2 µM [2, 13] of 3.4% and an IC50 ([2]; Plasmodium falciparum) greater than 10 µM.
Cl.O=C1Nc2ccc3ncccc3c2/C1=C/Nc1ccc(N2CCN(CCO)CC2)cc1 [TC71] was tested, and the “Mean TOX” value (HepG2 cells) was 33.87 µM, the “Cytotox ratio Pf Male” value [1] was 225.8 and the IC50 [1, 18] was 0.15 µM. The “Cytotox ratio Pf Female” value [2] was 3.4.
